In patent US20230251254A1, “METHOD FOR EVALUATING INTERACTION BETWEEN IMMOBILIZED SUBSTANCE IMMOBILIZED DIRECTLY OR INDIRECTLY ON SUBSTRATE AND PROXIMITY-DEPENDENT MODIFYING ENZYMELABELED SUBSTANCE TO BE ANALYZED” (CELLFREE SCIENCES CO.,LTD., priority 2020, published 2023):

Columns and labels:
[1] = target: T1, CRBN and IKZF1 (Homo sapiens, UniProt Q96SW2); details: stated as known; cited from earlier work
[2] = target: T1, CRBN and IKZF1; details: compound added to reaction buffer; AirID-fused CRBN
Description: (§1) In this Example, an interaction between proteins known to bind to each other, CRBN (SEQ ID NO: 7) and IKZF1 (SEQ ID NO: 6) or SALL4 (SEQ ID NO: 9), was analyzed. […] In view of this, the compound (thalidomide derivative) was added to a buffer to be used for a reaction to analyze how CRBN interacted with IKZF1 or SALL4 in a compound-dependent (binding recruiter) manner. The flow of this Example is illustrated in FIG. 3.
(§2) As a substance to be analyzed (protein), template DNA in which CRBN was fused to AirID and template DNA in which a mutant CRBN (SEQ ID NO: 8) having a mutation introduced into its binding site for the thalidomide derivative was fused to AirID were synthesized. As an immobilized substance (protein), template DNA was synthesized by fusing IKZF1, SALL4, or Venus (control) for comparison to a FLAG™ tag protein and a GST protein.
(§3) The synthesized template DNAs were used to synthesize AirID-fused substances to be analyzed and FLAG™-GST-fused immobilized substances through use of a wheat cell-free expression system.
(§4) The FLAG™-GST-fused immobilized substance (IKZF1, SALL4, or Venus) was bound to glutathione magnetic beads, followed by purification. The magnetic beads after the purification were dispensed and arranged on the wells of the plate, and immobilized by the magnetic force of the magnet plate.
(§5) The AirID-fused substance to be analyzed (CRBN or mutant CRBN) diluted with a reaction buffer containing biotin and ATP was allowed to react with the FLAG™-GST-fused immobilized substance (IKZF1, SALL4, or Venus) on the magnetic beads to perform biotin labeling of the FLAG™-GST-fused immobilized substance.
(§6) In order to remove the AirID-fused substance to be analyzed that was free in the reaction buffer or adsorbed onto the magnetic beads, the reaction buffer was removed and then washing was performed a plurality of times with a washing buffer.

[3] = target: T2, CRBN and SALL4 (Homo sapiens, UniProt Q96SW2); details: compound added to reaction buffer; AirID-fused CRBN
Description: as §1, §2, §3, §4, §5, §6

[4] = target: CRBN and SALL4 (Homo sapiens, UniProt Q96SW2, W386A/Y384A); details: mutant CRBN having a mutation in its binding site for the compound
Description: as §1, §2, §3, §4, §5, §6

[5] = target: CRBN and IKZF1 (Homo sapiens, UniProt Q96SW2, W386A/Y384A); details: mutant CRBN having a mutation in its binding site for the compound
Description: as §1, §2, §3, §4, §5, §6

[6] = target: T2, CRBN and SALL4; details: stated as known; cited from earlier work

T2 sequence (as listed by the source): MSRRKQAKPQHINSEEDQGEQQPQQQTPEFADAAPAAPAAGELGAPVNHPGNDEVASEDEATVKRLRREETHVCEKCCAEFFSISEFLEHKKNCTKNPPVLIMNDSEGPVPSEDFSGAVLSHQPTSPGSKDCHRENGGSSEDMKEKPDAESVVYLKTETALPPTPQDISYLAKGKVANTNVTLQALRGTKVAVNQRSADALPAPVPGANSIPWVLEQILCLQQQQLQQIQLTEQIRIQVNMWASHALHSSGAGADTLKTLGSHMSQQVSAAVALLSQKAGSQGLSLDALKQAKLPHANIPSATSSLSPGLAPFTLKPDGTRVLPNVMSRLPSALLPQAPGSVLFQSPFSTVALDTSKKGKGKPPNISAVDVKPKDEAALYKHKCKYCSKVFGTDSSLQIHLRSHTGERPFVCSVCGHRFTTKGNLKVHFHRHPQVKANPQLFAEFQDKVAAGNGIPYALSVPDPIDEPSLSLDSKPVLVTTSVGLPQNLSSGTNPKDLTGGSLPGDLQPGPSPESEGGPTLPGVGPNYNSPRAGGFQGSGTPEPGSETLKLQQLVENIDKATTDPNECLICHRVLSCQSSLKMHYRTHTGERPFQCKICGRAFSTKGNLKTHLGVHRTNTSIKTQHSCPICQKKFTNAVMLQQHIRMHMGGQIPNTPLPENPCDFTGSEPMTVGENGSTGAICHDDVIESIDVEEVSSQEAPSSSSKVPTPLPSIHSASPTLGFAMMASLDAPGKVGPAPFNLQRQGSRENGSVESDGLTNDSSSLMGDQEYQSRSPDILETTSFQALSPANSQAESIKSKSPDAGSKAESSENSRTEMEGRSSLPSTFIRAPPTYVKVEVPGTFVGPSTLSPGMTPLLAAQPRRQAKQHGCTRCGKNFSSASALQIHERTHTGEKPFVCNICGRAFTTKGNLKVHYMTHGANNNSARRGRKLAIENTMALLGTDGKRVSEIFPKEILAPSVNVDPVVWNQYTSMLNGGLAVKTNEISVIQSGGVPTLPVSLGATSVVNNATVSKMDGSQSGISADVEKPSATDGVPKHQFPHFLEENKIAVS
T2 sequence (Q96SW2 whole entry, the tested form may be a part): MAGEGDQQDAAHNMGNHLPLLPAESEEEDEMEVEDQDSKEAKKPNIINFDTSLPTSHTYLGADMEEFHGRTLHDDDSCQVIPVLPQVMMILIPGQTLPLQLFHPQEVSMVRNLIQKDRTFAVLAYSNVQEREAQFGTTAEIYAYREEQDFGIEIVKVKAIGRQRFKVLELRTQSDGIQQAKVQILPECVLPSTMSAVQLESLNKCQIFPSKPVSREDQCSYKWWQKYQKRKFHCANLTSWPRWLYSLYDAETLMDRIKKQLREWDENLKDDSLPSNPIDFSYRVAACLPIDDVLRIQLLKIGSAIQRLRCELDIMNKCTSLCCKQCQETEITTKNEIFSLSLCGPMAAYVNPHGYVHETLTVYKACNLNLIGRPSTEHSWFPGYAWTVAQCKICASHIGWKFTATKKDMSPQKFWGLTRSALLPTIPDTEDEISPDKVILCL
T1 sequence (Q96SW2 whole entry, the tested form may be a part): as above
T1 sequence (as listed by the source): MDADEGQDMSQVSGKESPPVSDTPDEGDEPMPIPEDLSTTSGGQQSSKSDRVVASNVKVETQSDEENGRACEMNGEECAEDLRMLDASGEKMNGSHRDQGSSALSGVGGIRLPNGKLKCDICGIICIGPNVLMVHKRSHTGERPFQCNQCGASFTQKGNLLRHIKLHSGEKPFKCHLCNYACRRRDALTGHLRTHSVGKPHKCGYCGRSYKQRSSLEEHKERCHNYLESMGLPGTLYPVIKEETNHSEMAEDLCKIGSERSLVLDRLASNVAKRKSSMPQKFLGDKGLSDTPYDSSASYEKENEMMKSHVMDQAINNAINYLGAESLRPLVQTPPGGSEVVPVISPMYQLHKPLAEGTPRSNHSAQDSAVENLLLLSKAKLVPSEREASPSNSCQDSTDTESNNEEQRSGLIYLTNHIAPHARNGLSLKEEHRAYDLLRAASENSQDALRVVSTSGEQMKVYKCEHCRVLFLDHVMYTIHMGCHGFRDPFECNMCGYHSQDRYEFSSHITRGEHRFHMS
Sequence of CRBN and SALL4 (Homo sapiens, UniProt Q96SW2, W386A/Y384A) (Q96SW2 whole entry Y384A/W386A): as the sequence (Q96SW2 whole entry, the tested form may be a part) above, with Y384A, W386A counted along it
Sequence of CRBN and IKZF1 (Homo sapiens, UniProt Q96SW2, W386A/Y384A) (Q96SW2 whole entry Y384A/W386A): as the sequence (Q96SW2 whole entry, the tested form may be a part) above, with Y384A, W386A counted along it

- luminescence intensity of CRBN and IKZF1 [2]: particularly increased
- luminescence intensity of CRBN and SALL4 [3]: particularly increased
- luminescence intensity of mutant CRBN and SALL4 [4]: hardly any increase
- luminescence intensity of mutant CRBN and IKZF1 [5]: hardly any increase
Structure (SMILES): Nc1cccc2c1C(=O)N(C1CCC(=O)NC1=O)C2=O (stereo not drawn) [Pomalidomide]
- effect on binding of CRBN and IKZF1 [1]: enhance their binding
- effect on binding of CRBN and SALL4 [6]: enhance their binding
